{"source": "patent US5328913A", "about": "“Minoxidil analogs as inhibitors of cell proliferation and lysyl hydroxylase” (priority 1992, dated 1994)", "assay_type_in_all_cases": "cell-based", "key": {"[1]": {"test_system": "lysyl hydroxylase", "test": "Lysyl hydroxylase activity in extracts of treated human skin fibroblasts (Example 1, tritium-release assay)", "conditions": "for Lysyl hydroxylase activity (%) / effect on lysyl hydroxylase activity (in words): 72 h; for Lysyl hydroxylase activity (%): 1% ethanol; for increase of the level of lysyl hydroxylase activity: 72 h (Table I text); for effect on lysyl hydroxylase activity (in words): cultured fibroblasts, Example 1", "method": "(§1) Cultures of human skin fibroblasts grown to confluence were incubated for 72 h in medium supplemented with 1% ethanol containing various concentrations of minoxidil or deoxyminoxidil as indicated. Cells were then harvested, and the enzyme activities in extracts of these cells were measured by tritium-release assays (Murad and Pinnell, J. Biol. Chem. 262:11,973 (1987)). The results are expressed as percentages of zero-concentration values.\nas §1, with “with 1% acetone containing various concentrations of minoxidil sulfate,” for “deoxyminoxidil”, “tritium release” for “tritium-release”\nSkin fibroblast cultures derived from an apparently normal child (GM05659) were obtained from the Institute for Medical Research, Camden, N.J. The cells were subcultured by trypsinization and used before 25 population doublings. Typically, 4×10^5 cells were seeded onto 100-mm (diameter) plastic petri dishes and allowed to grow in 10 ml of Dulbecco's modified Eagle's minimum essential medium containing 5.6 mM glucose, buffered in pH 7.4 with 24 mM sodium biocarbonate/25 mM Hepes and supplemented with 20% (v/v) calf serum which had been inactivated for 30 min at 56° C. The cells were incubated at 37° C. in a humidified atmosphere of 5% CO2 plus 95% air.\nAfter a week, the medium was replaced with medium supplemented with 0.5% heat-inactivated diaylzed calf serum, and the incubation was continued for 72 h in the presence of minoxidil or one of its structural analogs. The compounds were dissolved in 95% ethanol, except minoxidil sulfate which was dissolved in acetone; the final solvent concentration was 1% (v/v). During the last 3 h of incubation, cells received 100 μM Na L-ascorbate to ensure complete hydroxylation of the polypeptide precursors of precollagen (Murad et al, J. Invest. Dermatol. 75:404 (1980)).\nThe medium was then removed and the cells were washed twice with a solution containing 0.14 M NaCl, 5 mM KCl, 0.3 mM Na2 PO4, and 0.4 mM KH2 PO4, adjusted to pH 7.4. The cells were detached from the plates with a solution containing 0.05% trypsin, 0.54 mM EDTA, 5.5mM glucose, 6.90mM NaHCO3, […], and 5 mM KCl. The trypsinization was terminated with 2 vol of 20% serum-supplemented medium, and the cell number in an aliquot of the suspension was determined using a Coulter counter.\nThe detached cells were collected by centrifugation at 500g for 6 min at 4° C. washed twice by suspending in phosphate-buffered NaCl/KCl as above, and then centrifuged. The cell pellet was suspended in a medium (1 ml/5×10^6 cells) containing 0.2 M NaCl, 0.1 M glycine, 50 μM dithiothreitol, 20 mM Tris-HCl, buffer (pH 7.5), 0.1% Triton X-100, and 0.01% soybean trypsin inhibitor. The suspension was sonicated for 30 s using a Branson sonifier cell disrupter. The lysate was centrifuged at 27,000g for 1 h at 4° C., and the resulting supernatant was used for prolyl and lysyl hydroxylase assays (Murad and Pinnell, J. Biol. Chem. 262:11, 973 (1987)). The enzyme activities are based on a unit of soluble cell protein.\nThe protein content of cell extracts was determined by a dye-binding technique using Bio-Rad reagent and protein standard (Bradford, Anal. Biochem. 72:248 (1976)).\nNote: Cultures of human skin fibroblasts grown to confluence were\nincubated for 72 h in medium supplemented with 1% ethanol containing 1 mM\nof the indicated compounds. Cells were then harvested, and the enzyme\nactivity in extracts of these cells was measured by a tritiumrelease\nincubated for 72 h in medium supplemented with 1% ethanol containing 1 nM"}, "[2]": {"test_system": "lysyl hydroxylase", "test": "Lysyl hydroxylase activity in extracts of treated human skin fibroblasts (Example 1, tritium-release assay)"}, "[3]": {"test_system": "prolyl hydroxylase", "test": "Prolyl hydroxylase activity in extracts of treated human skin fibroblasts (Example 2)", "conditions": "72 hr; N,N-diethyl analog up to 2 mM", "method": "(§2) Cells were treated for 72 hr with minoxidil or its triazine analog at the indicated concentrations. The enzyme activities in extracts of treated cells were measured by tritium release assays (Murad and Pinnell, J. Biol. Chem. 262:11,973 (1987)) and are expressed as a percentage of zero-concentration values. PH, prolyl hydroxylase; LH, lysyl hydroxylase.\nCultures of human skin fibroblast (1.5×10^6 cells) were seeded onto 100-mm plates and incubated at 37° in Dulbecco's modified Eagle's medium supplemented with 20% calf serum. After 24 hr, the medium was replaced with medium supplemented with 0.5% heat-inactivated dialyzed calf serum. […] Cells treated with HCl only served as control. […]\nLysyl hydroxylase activity in extracts of treated cells was measured with an underhydroxylated procollagen substrate (Murad et al, J. Biol. Chem. 262:11,973 (1987)), which was prepared by labeling cultures of human skin fibroblasts with L-[4,5-^3 H]lysine in the presence of an iron chelator α,α'-dipyridyl (Murad and Pinnell, Conn. Tiss. Res. 13:181 (1985)). The amount of tritium released was quantitated as ^3 HO after vacuum distillation . Prolyl hydroxylase activity was similarly measured with an underhydroxylated procollagen substrate containing L-[4-^3 H]proline (Murad and Pinnell, J. Biol. Chem. 262:11973 (1987); Murad and Pinnell, Conn. Tiss. Res. 13:181 (1985)). […]"}, "[4]": {"test_system": "lysyl hydroxylase", "test": "Lysyl hydroxylase activity in extracts of treated human skin fibroblasts (Example 2, pyridine, triazine and N-alkyl analogs)", "conditions": "for IC50: 72 hr (FIG. 4, FIG. 5), read-out: concentration giving 50% inhibition (lysyl hydroxylase)", "method": "as §2\nCells were treated for 72 hr with various concentrations of minoxidil or its N-alkyl analogs as indicated. The enzyme activity in extracts of treated cells was measured by tritium release assays (Murad and Pinnell, J. Biol. Chem. 262:11,973 (1987)) and is expressed as a percentage of zero-concentration value. The minoxidil curve is reproduced from FIG. 4.\nCultures of human skin fibroblast (1.5×10^6 cells) were seeded onto 100-mm plates and incubated at 37° in Dulbecco's modified Eagle's medium supplemented with 20% calf serum. After 24 hr, the medium was replaced with medium supplemented with 0.5% heat-inactivated dialyzed calf serum. The incubation was continued for an additional 72 hr in the presence of 0.1-2 μM minoxidil analogs dissolved in 0.12N HCl; the final concentration of HCl was 0.0012N or 0.0024N. Cells treated with HCl only served as control. During the last 3 hr of incubation, cells received […] ascorbic acid to ensure complete hydroxylation of the polypeptide precursors of procollagen (Murad et al, J. Invest. Dermatol. 75:404 (1980)). At the end of the incubation period, cells were harvested by trypsinization and disrupted by sonication in a buffered medium (Murad et al, J. Biol. Chem. 262:11,973 (1987)).\nLysyl hydroxylase activity in extracts of treated cells was measured with an underhydroxylated procollagen substrate (Murad et al, J. Biol. Chem. 262:11,973 (1987)), which was prepared by labeling cultures of human skin fibroblasts with L-[4,5-^3 H]lysine in the presence of an iron chelator α,α'-dipyridyl (Murad and Pinnell, Conn. Tiss. Res. 13:181 (1985)). The amount of tritium released was quantitated as ^3 HO after vacuum distillation . Prolyl hydroxylase activity was similarly measured with an underhydroxylated procollagen substrate containing L-[4-^3 H]proline (Murad and Pinnell, J. Biol. Chem. 262:11973 (1987); Murad and Pinnell, Conn. Tiss. Res. 13:181 (1985)). The enzyme activities are based on a unit of soluble cell protein. The protein content of cell extracts was determined by a dye-binding techniques using Bio-Rad reagents (Bradford, Anal. Biochem. 72:248 (1976)).\nCells were treated for 72 hr with 1 mM minoxidil or its\nstructural analogs as indicated. The enzyme activity in extracts\nof treated cells was measured by a tritium-release assay and is\nexpressed as a percentage of HCl-treated control."}, "[5]": {"conditions": "1 mM, % of solvent-treated controls (Table I)"}, "[6]": {"conditions": "1 nM, % of ethanol-treated controls (Table II)"}}, "note": "“Also recorded” adds a separate entry of the source.", "data": [{"molecule": "CC1(C)CC(O)CC(C)(C)N1[O]", "note": "[4-Hydroxy-2,2,6,6-tetramethylpiperidine-N-oxyl]", "values": [{"measurement": "Lysyl hydroxylase activity (%)", "setting": "[1]; [5]", "value": 130, "unit": "%"}, {"measurement": "increase of the level of lysyl hydroxylase activity", "setting": "[1]", "value": "30-40%"}]}, {"molecule": "Nc1[nH]c(=O)c2nc[nH]c2[n+]1[O-]", "note": "[Guanine 3-N-oxide]", "values": [{"measurement": "Lysyl hydroxylase activity (%)", "setting": "[2]; 1 mM, dissolved in NaOH, final concentration 0.001 N, 72 h, % of solvent-treated controls (Table I)", "value": 132, "unit": "%"}, {"measurement": "increase of the level of lysyl hydroxylase activity", "setting": "[1]", "value": "30-40%"}]}, {"molecule": "O=C(O)c1cc[n+]([O-])cc1", "note": "[Isonicotinic acid N-oxide]", "values": [{"measurement": "Lysyl hydroxylase activity (%)", "setting": "[2]; 1 mM, dissolved in aqueous medium, 72 h, % of solvent-treated controls (Table I)", "value": 90, "unit": "%"}]}, {"molecule": "[O-][n+]1cccc(O)c1", "note": "[3-Hydroxypyridine-N-oxide]", "values": [{"measurement": "Lysyl hydroxylase activity (%)", "setting": "[1]; [5]", "value": 99, "unit": "%"}]}, {"molecule": "Cc1c([N+](=O)[O-])c(N2CCCCC2)nc(N)[n+]1[O-]", "note": "[Compound VI (Table II)]", "values": [{"measurement": "Lysyl hydroxylase activity (%)", "setting": "[1]; [6]", "value": 34, "unit": "%"}, {"measurement": "effect on lysyl hydroxylase activity (in words)", "setting": "[1]", "value": "no significant effect on its inhibitory activity"}]}, {"molecule": "Nc1nc(N2CCCCC2)nc(N)[n+]1[O-]", "note": "[Compound II (Table III)]", "values": [{"measurement": "effect on prolyl hydroxylase activity (in words)", "setting": "[3]", "value": "failure to decrease the activity of prolyl hydroxylase"}, {"measurement": "IC50", "setting": "[4]", "value": "~800", "unit": "µM"}, {"measurement": "effect on lysyl hydroxylase activity (in words)", "setting": "[4]; 72 hr, Example 2, listed as triazine analog", "value": "no significant effect up to 0.2 mM; also recorded: less potent than minoxidil"}]}, {"molecule": "CCN(CC)c1cc(N)[n+]([O-])c(N)n1", "note": "[Compound III (Table III)]", "values": [{"measurement": "effect on prolyl hydroxylase activity (in words)", "setting": "[3]", "value": "no significant effect on prolyl hydroxylase activity"}, {"measurement": "IC50", "setting": "[4]", "value": "~1000", "unit": "µM"}]}, {"molecule": "CC1(C)CCC=[N+]1[O-]", "note": "[5,5-Dimethyl-1-pyrroline-N-oxide]", "values": [{"measurement": "Lysyl hydroxylase activity (%)", "setting": "[1]; [5]", "value": 103, "unit": "%"}]}, {"molecule": "Cc1cc(N2CCOCC2)nc(N)[n+]1[O-]", "note": "[Compound VIII (Table II)]", "values": [{"measurement": "Lysyl hydroxylase activity (%)", "setting": "[1]; [6]", "value": 91, "unit": "%"}, {"measurement": "effect on lysyl hydroxylase activity (in words)", "setting": "[1]", "value": "inactive"}]}, {"molecule": "CN1CCN(c2cc(N)[n+]([O-])c(N)n2)CC1", "note": "[Compound IX (Table II)]", "values": [{"measurement": "Lysyl hydroxylase activity (%)", "setting": "[2]; 0.1 mM, dissolved in HCl, final concentration 0.0012 N, 72 h (Table II footnote a)", "value": 109, "unit": "%"}, {"measurement": "effect on lysyl hydroxylase activity (in words)", "setting": "[1]", "value": "inactive"}]}, {"molecule": "Cc1cc(N2CCCC2)nc(N)[n+]1[O-]", "note": "[Compound VII (Table II)]", "values": [{"measurement": "Lysyl hydroxylase activity (%)", "setting": "[1]; [6]", "value": 88, "unit": "%"}, {"measurement": "effect on lysyl hydroxylase activity (in words)", "setting": "[1]", "value": "inactive"}]}, {"molecule": "[O-][n+]1ccc(-c2ccccc2)cc1", "note": "[4-Phenylpyridine-N-oxide]", "values": [{"measurement": "Lysyl hydroxylase activity (%)", "setting": "[2]; 0.3 mM, dissolved in ethanol, final concentration 0.3%, 72 h, % of solvent-treated controls (Table I)", "value": 99, "unit": "%"}]}]}
